Converted amounts (≈) assume the structure as drawn. Read-outs that look alike come from different tables or passages of the source. Square brackets hold non-standard residues; d marks the D form. Ends that are not written are not given here. Peptide text beside a SMILES is read from it. * marks the point of attachment. Myristoyl = CCCCCCCCCCCCCC(=O)*; Orn = NCCC[C@H](N)C(=O)O
What was measured:
C. neoformans H99 [1] = conditions: previously published peptide; cited from earlier work
C. neoformans H99 [2] = system: C. neoformans H99; design: method as in PMID 35377230; conditions: with CAS, additive drug synergy; cited from earlier work
From the text: We endeavored to develop an inhibitor to target flippase function in Cn and harness the critical importance of Cdc50 in antifungal drug resistance and virulence. […] The peptide sequence was identified using an epitope approach. First, anti-Cdc50 polyclonal antibodi ...

C. neoformans crm1Δ = assay: microbe, parasite or virus in culture; type: cell-based, Cryptococcus neoformans; conditions: compound alone; RPMI1640, 37 °C, 48 h
Experimental: (§1) All microdilution assays with fungi were carried out in accordance with CLSI protocols from M27 for yeasts and M38 for filamentous fungi, respectively, unless otherwise specified.[64],[65] Briefly, 96-well plates were charged with RPMI1640 media, with operating volume in the first column, 200 μL, and half operating volume, 100 μL, in the remaining wells. Drug stock solution in DMSO was aliquoted into the first well in each row. Half of the volume in the dosed well was serially diluted 2-fold until column 11. Column 11 was used as the negative growth control, and column 12 was used as the positive growth control. ON yeast cultures in YPD were washed twice in DD-H2O, resuspended in PBS, and adjusted to 5000 cfu/mL in RPMI. The 96-well plate was inoculated with 100 μL aliquots of cell suspension per well. Plates were incubated at 37 °C for 2 days.

C. neoformans apt3Δ = assay: microbe, parasite or virus in culture; type: cell-based, Cryptococcus neoformans; conditions: compound alone; RPMI1640, 37 °C, 48 h
Experimental: as §1

C. neoformans apt4Δ = assay: microbe, parasite or virus in culture; type: cell-based, Cryptococcus neoformans; conditions: compound alone; RPMI1640, 37 °C, 48 h
Experimental: as §1

C. neoformans cdc50Δ = assay: microbe, parasite or virus in culture; type: cell-based, Cryptococcus neoformans
Experimental: as §1

C. neoformans apt2Δ = assay: microbe, parasite or virus in culture; type: cell-based, Cryptococcus neoformans; conditions: compound alone; RPMI1640, 37 °C, 48 h
Experimental: as §1

C. neoformans Crm1^OE = assay: microbe, parasite or virus in culture; type: cell-based, Cryptococcus neoformans; conditions: compound alone; RPMI1640, 37 °C, 48 h
Experimental: as §1

C. neoformans apt1Δ = assay: microbe, parasite or virus in culture; type: cell-based, Cryptococcus neoformans; conditions: compound alone; RPMI1640, 37 °C, 48 h
Experimental: as §1

C. neoformans H99 [3] = assay: microbe, parasite or virus in culture; type: cell-based, Cryptococcus neoformans
Experimental: as §1

C. neoformans MRL862 = assay: microbe, parasite or virus in culture; type: cell-based, Cryptococcus neoformans; conditions: compound alone; RPMI1640, 37 °C, 48 h
Experimental: as §1

Cn H99 = assay: microbe, parasite or virus in culture; type: cell-based, Cryptococcus neoformans; conditions: 37 °C, 48 h
Experimental: (§2) Previous studies have shown that modifying microbiological media with salts such as CaCl2 can have a drastic effect on the growth of fungi and their responses to antifungals.[19],[35] In the case of CaCl2, the divalent cation, Ca^2+, is involved in fungal cell stress response. To understand how the peptide activity may involve calcium and stress response, the MICs of KKOO, KKOO-NH2, FLC, and CAS were assessed as a function of the calcium concentration in liquid YPD media. It was observed that calcium enrichment completely desensitized the wild-type strain to KKOO and KKOO-NH2, Tables 7 and 8, respectively. Effects of calcium enrichment on the susceptibility of Cryptococcus to CAS similar to literature values were recorded, Supporting Information, Table S7.[35]
(§3) In order to control for the effects of enriching YPD with a divalent cation, MICs and ROS production were also measured as a function of the MgCl2 supplement at the same millimolar concentrations of cation as in the CaCl2-modified experiments. […] No peptide susceptibility changes were observed against Cn cdc50Δ in magnesium-enriched media, Table S9. ROS production in H99 induced by peptide exposure was inhibited after 30 min of treatment in the magnesium-enriched condition, similar to the levels observed in the calcium-enriched media at 16 μg/mL KKOO-NH2, Figure S1. […] The link between peptide activity and calcium homeostasis may be vital in understanding precisely how the peptide kills fungal cells and requires more research to elucidate.
as §1

Cn cdc50Δ = assay: microbe, parasite or virus in culture; type: cell-based, Cryptococcus neoformans; conditions: 37 °C, 48 h
Experimental: as §2, §3, §1

C. auris B11245 = assay: microbe, parasite or virus in culture; type: cell-based, Candida auris; conditions: compound alone; RPMI1640, 37 °C, 48 h; * = paradoxical growth observed (CAS)
Experimental: as §1

C. neoformans H99 [4] = type: cell-based, Cryptococcus neoformans; conditions: 2× MIC; subsequent rebound of the population through 8 h; RPMI1640, 30 °C
Experimental: Culture tubes were prepared with aliquots of 2.0 mL of RPMI1640 (containing Q, MOPS, pH = 7, no phenol red). The tubes were sealed to prevent evaporation and were equilibrated with the incubation chamber overnight, at 30 °C. On the day of the experiment, overnight yeast cultures in YPD were washed twice with DD-H2O and resuspended in DD-H2O. The OD600 of the cell suspension was adjusted to 4.6, ≈2 × 10^6 cfu/mL, in DD-H2O. A 200 μL aliquot of adjusted cell suspension was added systematically to each tube, followed by 200 μL sampling for the 0 h time point. Immediately after sampling, the antifungal compounds were added, and the tubes were placed in the incubator at 30 °C with shaking at 225 rpm. The sampled aliquot was transferred to a 96-well plate and serially diluted six times, 10-fold each time. The resulting cell suspensions were spotted onto YPD plates in a grid pattern of 5 μL per spot. Subsequently, tubes were briefly removed from the incubator, and 100 μL aliquots were sampled at 2, 4, 6, and 8 h time points. Cells were counted on the YPD plates at either 24 or 48 h after plate spotting, depending on when the colonies were countable. Images of the YPD plates were recorded on the Bio-Rad Gel imager after 48 h of incubation at 30 °C. […] 2 C = number of colonies counted, Df = dilution factor = 10^n–1, n = column that the cells were counted, and Vf = volume factor = 1/0.005 mL.

A. fumigatus AF293 = assay: microbe, parasite or virus in culture; type: cell-based, Aspergillus fumigatus; conditions: compound alone; RPMI1640, 37 °C, 48 h; * = paradoxical growth observed (CAS)
Experimental: as §1

C. glabrata 2001 = assay: microbe, parasite or virus in culture; type: cell-based, Candida glabrata
Experimental: as §1

C. glabrata FKS2-S663P = assay: microbe, parasite or virus in culture; type: cell-based, Candida glabrata; conditions: compound alone; RPMI1640, 37 °C, 48 h
Experimental: as §1

C. glabrata FKS1-S629P = assay: microbe, parasite or virus in culture; type: cell-based, Candida glabrata; conditions: compound alone; RPMI1640, 37 °C, 48 h
Experimental: as §1

Cn Crm1-oe = assay: microbe, parasite or virus in culture; type: cell-based, Cryptococcus neoformans; conditions: YPD + 0 mM Ca2+, 37 °C, 48 h
Experimental: as §2, §1

Cn crm1Δ = assay: microbe, parasite or virus in culture; type: cell-based, Cryptococcus neoformans; conditions: YPD + 0 mM Ca2+, 37 °C, 48 h
Experimental: as §2, §1

Cn apt1Δ = assay: microbe, parasite or virus in culture; type: cell-based, Cryptococcus neoformans; conditions: 37 °C, 48 h
Experimental: as §2, §1

C. albicans SC5413 = assay: microbe, parasite or virus in culture; type: cell-based, Candida albicans
Experimental: as §1

[5] = Table S1, unit and conditions not given (MICs elsewhere in μg/mL)
[6] = compound alone, RPMI1640, 37 °C, 48 h

Molecule: AW9-Ma (Myristoyl-WGGIKKNYA)
- MIC (C. neoformans H99 [1]): 64 µg/mL
- fractional inhibition concentration (FIC) index (C. neoformans H99 [2]): 0.5

Molecule: CCCCCCCCCCCCCC(=O)N[C@@H](Cc1c[nH]c2ccccc12)C(=O)NCC(=O)NCC(=O)N[C@H](C(=O)N[C@@H](CCCN)C(=O)N[C@@H](CCCN)C(=O)N[C@@H](CC(N)=O)C(=O)N[C@@H](Cc1ccc(O)cc1)C(=O)N[C@@H](C)C(=O)O)[C@@H](C)CC [KKOO] (Myristoyl-WGGI[Orn][Orn]NYA-OH)
- MIC (C. neoformans crm1Δ): 8 µg/mL (≈ 6.57 µM)
- MIC (C. neoformans apt3Δ): 8 µg/mL (≈ 6.57 µM)
- MIC (C. neoformans apt4Δ): 8 µg/mL (≈ 6.57 µM)
- MIC (SAR screen peptides) (C. neoformans cdc50Δ; [5]): 4
- MIC (C. neoformans cdc50Δ; [6]): 4 µg/mL (≈ 3.28 µM)
- MIC (C. neoformans apt2Δ): 8 µg/mL (≈ 6.57 µM)
- MIC (C. neoformans Crm1^OE): 8 µg/mL (≈ 6.57 µM)
- MIC (C. neoformans apt1Δ): 4 µg/mL (≈ 3.28 µM)
- MIC (SAR screen peptides) (C. neoformans H99 [3]; [5]): 16
- MIC (C. neoformans H99 [3]; [6]): 16 µg/mL (≈ 13.1 µM)
- MIC (C. neoformans MRL862): 8 µg/mL (≈ 6.57 µM)
- MIC (Cn H99; YPD + 0 mM Ca2+): 32 µg/mL
- MIC (Cn H99; YPD + 0 mM Mg2+): 16 µg/mL
- MIC (Cn H99; YPD + 2.5 mM Ca2+): >128 µg/mL
- MIC (Cn H99; YPD + 2.5 mM Mg2+): 32 µg/mL
- MIC (Cn H99; YPD + 5 mM Ca2+): >128 µg/mL
- MIC (Cn H99; YPD + 5 mM Mg2+): 32 µg/mL
- MIC (Cn H99; YPD + 10 mM Ca2+): >128 µg/mL
- MIC (Cn H99; YPD + 10 mM Mg2+): 32 µg/mL
- MIC (Cn H99; YPD + 20 mM Ca2+): >128 µg/mL
- MIC (Cn H99; YPD + 20 mM Mg2+): 128 µg/mL
- MIC (Cn cdc50Δ; YPD + 0 mM Ca2+): 4 µg/mL
- MIC (Cn cdc50Δ; YPD + 0 mM Mg2+, unit inferred): 8 µg/mL
- MIC (Cn cdc50Δ; YPD + 2.5 mM Ca2+): 8 µg/mL
- MIC (Cn cdc50Δ; YPD + 2.5 mM Mg2+, unit inferred): 8 µg/mL
- MIC (Cn cdc50Δ; YPD + 5 mM Ca2+): 8 µg/mL
- MIC (Cn cdc50Δ; YPD + 5 mM Mg2+, unit inferred): 8 µg/mL
- MIC (Cn cdc50Δ; YPD + 10 mM Ca2+): 8 µg/mL
- MIC (Cn cdc50Δ; YPD + 10 mM Mg2+, unit inferred): 4 µg/mL
- MIC (Cn cdc50Δ; YPD + 20 mM Ca2+): 8 µg/mL
- MIC (Cn cdc50Δ; YPD + 20 mM Mg2+, unit inferred): 8 µg/mL
- MIC (C. auris B11245): > 128 µg/mL
- time of peak killing activity (C. neoformans H99 [4]): ≤ 2 h
- MIC (A. fumigatus AF293): > 128 µg/mL
- MIC (SAR screen peptides) (C. glabrata 2001; [5]): 16
- MIC (C. glabrata 2001; [6]): 16 µg/mL (≈ 13.1 µM)
- MIC (C. glabrata FKS2-S663P): 16 µg/mL (≈ 13.1 µM)
- MIC (C. glabrata FKS1-S629P): 16 µg/mL (≈ 13.1 µM)
- MIC (Cn Crm1-oe): 8 µg/mL
- MIC (Cn crm1Δ): 8 µg/mL
- MIC (Cn apt1Δ; YPD + 0 mM Ca2+): 8 µg/mL
- MIC (Cn apt1Δ; YPD + 2.5 mM Ca2+): 32 µg/mL
- MIC (SAR screen peptides) (C. albicans SC5413; [5]): 16
- MIC (C. albicans SC5413; [6]): 32 µg/mL (≈ 26.3 µM)
